Experimental data as given in patent US6593340B1, “Pharmaceutical compositions containing N-propargylphentermine and related analogs to treat neurodegeneration and/or depression” (CV Technologies, Inc., priority 2000, dated 2003).
Where two headings read alike, the source gives them in different places.

Key:
[1] = molecular target: T1, rat brain monoamine oxidase-A (Rattus norvegicus, UniProt P21396); experiment: Monoamine oxidase-A-inhibiting activity in vitro (radiochemical, 5-hydroxytryptamine substrate); assay type: biochemical
T1 construct: incubated in appropriately diluted homogenates of rat brain or liver; from tissue; host or cells: rat brain or liver homogenate
T1 sequence (P21396 1-526): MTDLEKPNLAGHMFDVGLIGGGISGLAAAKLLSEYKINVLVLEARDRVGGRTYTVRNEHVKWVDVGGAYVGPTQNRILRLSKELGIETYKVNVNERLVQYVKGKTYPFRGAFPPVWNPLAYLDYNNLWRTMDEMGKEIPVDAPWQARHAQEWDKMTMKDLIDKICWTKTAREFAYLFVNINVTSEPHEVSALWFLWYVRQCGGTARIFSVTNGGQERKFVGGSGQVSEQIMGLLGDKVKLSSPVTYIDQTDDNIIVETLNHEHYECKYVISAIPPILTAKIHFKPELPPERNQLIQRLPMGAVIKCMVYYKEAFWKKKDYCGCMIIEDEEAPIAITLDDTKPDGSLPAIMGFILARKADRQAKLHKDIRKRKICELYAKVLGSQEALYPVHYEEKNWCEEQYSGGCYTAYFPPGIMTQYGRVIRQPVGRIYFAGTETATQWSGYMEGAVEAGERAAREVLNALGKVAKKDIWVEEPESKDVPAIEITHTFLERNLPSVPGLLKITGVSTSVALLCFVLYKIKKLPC
Method: The compounds were evaluated for in vitro monoamine oxidase-A-inhibiting activity using the radiochemical procedure of Lyles and Callingham (1982) employing radiolabeled 5-hydroxytryptamine as substrate for monoamine oxidase-A. Various concentrations of the compounds of interest were incubated in appropriately diluted homogenates of rat brain or liver in a 0.2 M potassium phosphate buffer. Incubations proceeded at 37° C. for 10 minutes. Incubation was terminated by the addition of acid and the radiolabeled product (5-hydroxyindoleacetic acid) was extracted and quantified by liquid scintillation counting procedures. […] The percent inhibition of monoamine oxidase-A activity compared to controls containing no drug was calculated.

[2] = molecular target: T2, rat brain monoamine oxidase-B (Rattus norvegicus, UniProt P19643); experiment: Monoamine oxidase-B-inhibiting activity in vitro (radiochemical, β-phenylethylamine substrate); assay type: biochemical
T2 construct: incubated in appropriately diluted homogenates of rat brain or liver; from tissue; host or cells: rat brain or liver homogenate
T2 sequence (P19643 1-520): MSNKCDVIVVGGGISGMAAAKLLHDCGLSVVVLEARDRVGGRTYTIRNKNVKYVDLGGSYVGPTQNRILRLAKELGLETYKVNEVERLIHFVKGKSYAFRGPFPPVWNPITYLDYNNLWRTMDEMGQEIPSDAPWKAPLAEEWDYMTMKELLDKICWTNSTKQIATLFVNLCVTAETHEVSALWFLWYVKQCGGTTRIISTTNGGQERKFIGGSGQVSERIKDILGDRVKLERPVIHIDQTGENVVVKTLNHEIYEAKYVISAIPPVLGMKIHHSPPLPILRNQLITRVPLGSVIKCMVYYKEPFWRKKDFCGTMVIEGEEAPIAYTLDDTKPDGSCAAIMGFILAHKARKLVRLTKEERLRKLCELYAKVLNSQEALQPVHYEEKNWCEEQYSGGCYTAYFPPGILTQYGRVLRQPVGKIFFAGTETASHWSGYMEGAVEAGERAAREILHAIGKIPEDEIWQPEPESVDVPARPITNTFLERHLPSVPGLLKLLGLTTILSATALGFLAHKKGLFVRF
Method: The compounds were evaluated for in vitro monoamine oxidase-B inhibiting activity using the radiochemical procedure of Lyles and Callingham (1982) employing radiolabeled β-phenylethylamine as substrate for monoamine oxidase-B. Various concentrations of the compounds of interest were incubated in appropriately diluted homogenates of rat brain or liver in a 0.2 M potassium phosphate buffer. Incubations proceeded at 37° C. for 10 minutes. Incubation was terminated by the addition of hydrochloric acid and the radiolabeled product (phenylacetic acid) was extracted and quantified by liquid scintillation counting procedures. […] The percent inhibition of monoamine oxidase-B activity compared to controls containing no drug was calculated. Reference: Lyles, G. A. and Callingham, B. A. (1982). In vitro and in vivo inhibition by benserazide of clorgyline-resistant amine exodiases in rat cardiovascular tissues. Biochem. Pharmacol, 31:1417-1424.

[3] = system: rat brain and liver monoamine oxidase-B; experiment: Monoamine oxidase-B-inhibiting activity ex vivo; assay type: in vivo; settings: for % Inhibition Monoamine Oxidase-B: 7 days following injection, i.p., combined with DSP4 50 mg/kg; for effect on monoamine oxidase-B activity in the brain or liver: seven days after administration
Method: The compounds were evaluated for ex vivo monoamine oxidase-B-inhibiting activity using the radiochemical procedure of Lyles and Callingham (1982) employing radiolabeled β-phenylethylamine as substrate for monoamine oxidase-B. The compounds of interest were injected intraperitoneally in water. Animals were killed by decapitation and the brains and livers immediately removed and frozen until assay for monoamine oxidase-B activity. Tissues were homogenized and appropriately diluted in buffer prior to incubation. Incubations proceeded at 37° C. for 10 minutes. Incubation was terminated by the addition of acid and the radiolabeled product (phenylacetic acid) was extracted and quantified by liquid scintillation counting procedures. […] The percent inhibition of monoamine oxidase-B activity compared to controls containing no drug was calculated. Reference: Lyles, G. A. and Callingham, B. A. (1982). […] Biochaem. Pharmacol. 31:1417-1424.
Neuroprotectant activity was evaluated by examining the prevention of DSP-4 induced noradrenaline depletion in mouse hippocampus as described previously (Yu et al., 1994). Briefly, mice were injected (i.p.) with either water or potential neuroprotectants (10 mg/kg in water). One hour later they were injected with either water or DSP-4 (50 mg/kg in water). One week later the mice were killed and the brains removed and the hippocampus dissected out. The hippocampus was frozen and saved for estimation of noradrenaline and other amine neurotransmitters and their metabolites (Sloley and Goldberg, 1991). The rest of the brain and the liver were frozen and retained for estimation of monoamine oxidase activities ex vivo as described earlier. […] 63:1820-1828. Sloley, B. D. and Goldberg J. I. (1991), Determination of y-glutamyl conjugates of monoamines by means of high-performance liquid chromatography with electrochemical detection and application to gastropod tissues, J. Chromatog. 567:49-56.

[4] = system: DSP-4 induced noradrenaline depletion in mouse hippocampus; experiment: Prevention of DSP-4 neurotoxicity ex vivo (noradrenaline depletion); assay type: in vivo; settings: 10 mg/kg i.p.; for % NA Restoration: then DSP-4 50 mg/kg one hour later, one week
Method: Neuroprotectant activity was evaluated by examining the prevention of DSP-4 induced noradrenaline depletion in mouse hippocampus as described previously (Yu et al., 1994). Briefly, mice were injected (i.p.) with either water or potential neuroprotectants (10 mg/kg in water). One hour later they were injected with either water or DSP-4 (50 mg/kg in water). One week later the mice were killed and the brains removed and the hippocampus dissected out. The hippocampus was frozen and saved for estimation of noradrenaline and other amine neurotransmitters and their metabolites (Sloley and Goldberg, 1991). The rest of the brain and the liver were frozen and retained for estimation of monoamine oxidase activities ex vivo as described earlier. […] References: Yu, P. H., Davis, B. A., Fang, J. and Boulton, A. A. (1994), Neuroprotective effect of some monoamine oxidase-B inhibitors against DSP-4 induced noradrenaline depletion in the mouse hippocampus, J. Neurochem. 63:1820-1828. Sloley, B. D. and Goldberg J. I. (1991), Determination of y-glutamyl conjugates of monoamines by means of high-performance liquid chromatography with electrochemical detection and application to gastropod tissues, J. Chromatog. 567:49-56.

[5] = system: rat brain and liver monoamine oxidase-A; experiment: Monoamine oxidase-A-inhibiting activity ex vivo; assay type: in vivo; settings: for % Inhibition Monoamine Oxidase-A: 7 days following injection, i.p., 10 mg/kg combined with DSP4 50 mg/kg; for effect on monoamine oxidase-A activity in the brain or liver: seven days after administration
[6] = system: serotonin (5-HT) uptake into rat striatal prisms; experiment: Inhibition of serotonin uptake in vitro; assay type: cell-based; design: dose or concentration left out as unconfirmed
Method: Animals were killed by decapitation and the hippocampus or striatum were removed and placed in ice cold incubation medium. […] 0.8 ml of ice cold prism of suspension per test tube was used. Each test tube was pre-incubated for 5 minutes at 37° C. At this time each test tube was placed on ice and the appropriate drug solution or control was added. This was rapidly followed by the addition of the radiolabled amine (titrated noradrenaline or serotonin, 0.01 μM, specific activity about 13.5 Ci/mmol). The mixture was incubated for 10 minutes at 37° C. The incubations were then filtered and washed using a cell harvester and the radioactivity retained on the filters was measured using a scintillation counter. The percent inhibition of amine uptake compared to controls containing no drug was calculated. […] The effect of viloxaine hydrochloride on the transport of noradenaline, dopamine, 5-hydroxytryptamine and gamma-amino-butyric acid in rat brain tissue.

[7] = system: noradrenaline uptake into rat hippocampal prisms; experiment: Inhibition of noradrenaline uptake in vitro; assay type: cell-based; design: dose or concentration left out as unconfirmed
Method: The ability of N-propargylphetermine and related derivatives to inhibit monoamine uptake was evaluated in vitro by examining the effects of said compounds on the uptake of radiolabeled noradrenaline and serotonin into fresh rat hippocampal and striatal prisms, respectively according to the method described in Martin et al., (1978). Animals were killed by decapitation and the hippocampus or striatum were removed and placed in ice cold incubation medium. Prisms were prepared using a tissue chopper, resuspended in 800 volumes of incubation medium containing 12.5 μM nialamide to inhibit amine metabolism and stored on ice until used. 0.8 ml of ice cold prism of suspension per test tube was used. Each test tube was pre-incubated for 5 minutes at 37° C. At this time each test tube was placed on ice and the appropriate drug solution or control was added. This was rapidly followed by the addition of the radiolabled amine (titrated noradrenaline or serotonin, 0.01 μM, specific activity about 13.5 Ci/mmol). The mixture was incubated for 10 minutes at 37° C. The incubations were then filtered and washed using a cell harvester and the radioactivity retained on the filters was measured using a scintillation counter. The percent inhibition of amine uptake compared to controls containing no drug was calculated. Reference: Maretin I. L., Baker G. B. and Mitchell, P. R. (1978). The effect of viloxaine hydrochloride on the transport of noradenaline, dopamine, 5-hydroxytryptamine and gamma-amino-butyric acid in rat brain tissue. Neuropharmacology 17:421-423.

C#CCNC(C)(C)Cc1ccccc1 [CVT-PP019, N-propargylphentermine]
IC50 [1]: 53 µM
IC50 [2]: 5.7 µM
% Inhibition Monoamine Oxidase-B ([3]; brain): −9.4 ± 3.0%
% Inhibition Monoamine Oxidase-B ([3]; liver): −10.1 ± 6.6%
effect on monoamine oxidase-B activity in the brain or liver [3]: did not significantly affect
protection against DSP-4-induced noradrenaline depletion [4]: significantly protected
% NA Restoration ([4]; Table 5 experiment): 114.6%
% Inhibition Monoamine Oxidase-A ([5]; brain): −16.4 ± 4.9%
% Inhibition Monoamine Oxidase-A ([5]; liver): −20.1 ± 4.4%
effect on monoamine oxidase-A activity in the brain or liver [5]: did not significantly affect
% inhibition 5-HT uptake [6]: 68 ± 2%
% inhibition NA uptake [7]: 77 ± 3%

C#CCNC(C)(C)Cc1ccc(Cl)cc1 [CVT-PP022, p-chloro-N-propargylphentermine]
IC50 [1]: 160 µM
IC50 [2]: 4 µM
% Inhibition Monoamine Oxidase-B ([3]; brain): 17.5 ± 5.6%
% Inhibition Monoamine Oxidase-B ([3]; liver): 12.6 ± 5.3%
effect on monoamine oxidase-B activity in the brain or liver [3]: did not significantly affect
protection against DSP-4-induced noradrenaline depletion [4]: significantly protected
% NA Restoration ([4]; Table 6 experiment): 70.5%
% Inhibition Monoamine Oxidase-A ([5]; brain): 2.5 ± 5.2%
% Inhibition Monoamine Oxidase-A ([5]; liver): 5.9 ± 4.1%
effect on monoamine oxidase-A activity in the brain or liver [5]: did not significantly affect
% inhibition 5-HT uptake [6]: 89 ± 1%
% inhibition NA uptake [7]: 93 ± 2%

CNCCCN1c2ccccc2CCc2ccccc21 [Desipramine, reference compound]
% inhibition NA uptake [7]: 99 ± 3%

NNCCc1ccccc1 [phenelzine.H2SO4, phenelzine, reference compound]
IC50 ([1]; in vitro, rat brain homogenate, read-out: IC50 for inhibition of monoamine oxidase A): 130 µM
IC50 [2]: 26 µM

(−)-deprenyl [reference compound]
% NA Restoration ([4]; Table 5 experiment): 97.2%
% NA Restoration ([4]; Table 6 experiment): 90.3%
